In patent US11576979B2, “Pyrrolobenzodiazepine prodrugs and antibody conjugates thereof” (GENENTECH, INC., priority 2016, dated 2023):
Where two headings read alike, the source gives them in different places.

How the values were obtained:
[1] = system: HCC1395; experiment: CELLTITER GLO cell proliferation assay (Example 6); type: cell-based; details: Homo sapiens, Table 4, read-out: IC50 potency HCC1395
Protocol: (§1) The toxicity of PBD monomer disulfide prodrugs and diaphorase prodrugs were evaluated against KPL-4, WSU-DLCL2, HCT-116, HCC1395 and Jurkat cell cultures. […] KPL-4 cells further have a high expression of DTD on the order of about 839 nRPKM (where nRPKM refers to normalized reads per Kb of transcript length per million mapped read).
(§2) Potency of the disulfide and DT-diaphorase prodrugs was measured by a cell proliferation assay employing the following protocol (CELLTITER GLO™ Luminescent Cell Viability Assay, Promega Corp.). First, an aliquot of 40 ul of cell culture containing about 8000 cells of WSU-DLCL2 cells (low NQO1 gene and GSH level), 4000 cells of KPL-4 (high NQO1 gene and GSH level), HCT-116 cells, HCC1395 cells or Jurkat cells in RPMI-1640 culture medium (supplemented with 10% fetal bovine serum, 2 mM glutamine, 50 uM cystine, and 0.015 g/L L-methionine) was deposited in each well of a 384-well flat clear bottom white polystyrene tissue culture-treated microplates (Corning, N.Y.). Second, control wells were prepared containing medium with and without cells. Third, compounds with and without disulfide or DT-diaphorase prodrugs (n=3) were added to the experimental wells using ECHO acoustic liquid handling technology (Labcyte Inc, Sunnyvale, Calif.) to create a 10-point dose-response curve in triplicate with 1:3× serial dilution. Fourth, cells were cultured in a humidified incubator set at 37° C. and maintaining an atmosphere of 5% CO2. Fifth, the plates were equilibrated to room temperature for approximately 30 minutes. Sixth, a volume of CELLTITER GLO™ Reagent equal to the volume of cell culture medium present in each well was added. Seventh, the contents were mixed for 10 minutes on an orbital shaker in the dark to induce cell lysis. Eighth, the plate was incubated at room temperature for 30 minutes to stabilize the luminescence signal. Ninth, luminescence was recorded and reported in graphs as % activity where RLU (relative luminescence units) was normalized to controls (no compound control minus no cell control). Tenth, data was plotted as individual points for each replicate (n=3) for each antibody as the mean of luminescence for each set of replicates, with standard deviation error bars.

[2] = system: HCT-116; experiment: CELLTITER GLO cell proliferation assay (Example 6); type: cell-based; details: Homo sapiens
Protocol: as §1, §2

[3] = system: Jurkat; experiment: CELLTITER GLO cell proliferation assay (Example 6); type: cell-based; details: Homo sapiens, Table 4, read-out: IC50 potency Jurkat
Protocol: as §1, §2

[4] = target: T1, DT Diaphorase (Homo sapiens, UniProt P15559); experiment: DT diaphorase activated payload release (LC-MS MRM quant); type: biochemical; details: after 90 minutes incubation
T1 construct: purchased Sigma D1315
T1 sequence (P15559 whole entry): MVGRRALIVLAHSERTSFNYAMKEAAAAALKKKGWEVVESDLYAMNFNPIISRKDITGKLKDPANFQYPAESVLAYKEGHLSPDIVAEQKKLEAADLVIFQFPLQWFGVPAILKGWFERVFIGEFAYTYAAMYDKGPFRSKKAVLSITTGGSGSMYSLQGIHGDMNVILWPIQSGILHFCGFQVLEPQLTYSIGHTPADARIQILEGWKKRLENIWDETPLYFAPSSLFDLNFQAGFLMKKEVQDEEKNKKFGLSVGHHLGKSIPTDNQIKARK
Protocol: In addition to the potency evaluation, the release of PBD dimer diaphorase prodrug 1 was evaluated. The release was measured to be 12% after 90 minutes incubation according to the following method. First, a master mix reaction was prepared containing 0.5 uM of the […], […] NADPH […]. Second, the reaction mix was incubated at room temperature for 5, 30, 90 min. […] Finally, data was analyzed using MultiQuant analysis software and standards were calculated using GraphPad Prism 6 linear regression fit.
An in vitro DT diaphorase activated drug release assay was used to measure NADPH depletion. DT diaphorase activated release of Norfloxacin and Payload (PBD) was measured by the in vitro depletion of NADPH. The assay method was modified from the absorbance measurement of NADPH at A340 (Osman et. al, Chemico-Biological Interactions 147 (2004) 99-108) due to the interference of compounds. The depletion of NADPH was measured by monitoring the decrease of fluorescence intensity of NADPH at 480 nm after being excited at 340 nM. […] The fluorescence intensity (RFU) of DNAPH was recorded on M1000 plate reader (Tecan) with excitation at 340 nm and emission at 480 nm. For data analysis, data was analyzed and plotted using Prism GraphPad 6. […]

[5] = system: KPL-4 Cell line; experiment: Cell viability, DTD-activated quinone prodrugs (Example 15); type: cell-based
Protocol: (§3) The toxicity of PBD dimer diaphorase prodrug 1, PBD monomer diaphorase prodrug 2, PBD dimer control 1 and PBD monomer control 1 were evaluated against KPL-4 and WSU cell lines for cell viability. The KPL-4 cell line is was a high DTD cell line characterized by NQO1 nRPKM of 839 and the WSU cell line was a low DTD cell line characterized by a NQO1 nRPKM of 1.36. The IC50 ratios are based on the prodrug IC50 value relative to the PBD dimer control.

[6] = system: WSU Cell line; experiment: as above; type: cell-based
Protocol: as §3

[7] = system: KPL-4; experiment: CELLTITER GLO cell proliferation assay (Example 6); type: cell-based; details: data in parenthesis = repeat evaluations
Protocol: as §1, §2

[8] = system: WSU-DLCL2; experiment: CELLTITER GLO cell proliferation assay (Example 6); type: cell-based; details: data in parenthesis = repeat evaluations
Protocol: as §1, §2

[9] = system: MDA-MB-453 tumor cell line; experiment: in vitro tumor cell killing assay, 3 days (Example 13); type: cell-based; details: Homo sapiens, MDA-MB-453, 72 h
Protocol: The toxicity of various PBD monomer and dimer boronic acid prodrug compounds were evaluated for cell toxicity. In the in vitro tumor cell killing assay, the cells were added to each well of 96-well microtiter plates at 8,000 cells per well and were incubated overnight at 37° C. in a humidified atmosphere of 5% CO2. The cells were exposed to various concentration of the indicated prodrug, positive control and negative control compounds. Where silvestrol was evaluated, a 1:3 serial dilution was used. After incubation for 3 days, Cell titer-Glo reagent (Promega, Madison Wis.) was added to the wells at 100 μL per well followed by a 10-minute incubation at room temperature, and the luminescent signal was measured using a Packard/Perkin-Elmer TopCount.
The toxicity of PBD monomer boronic acid prodrug 1 was evaluated against MDA-MB-453 tumor cell line for cell viability. PBD monomer control 1 was used as a positive control and PBD monomer control 2 was used as a negative control. The toxicity study was repeated wherein the PBD prodrug and controls were administered in combination with silvestrol. FIG. 15C depicts a plot of MDA-MB-453 cell kill versus drug concentration in μM three days after exposure to: (i) a PBD monomer control; (ii) a PBD monomer control having a benzyl formate moiety at the N10 PBD position; and (iii) a PBD monomer boronic acid prodrug. […]

[10] = target: T1, DT Diaphorase; experiment: in vitro DT diaphorase activated drug release assay (NADPH depletion); type: biochemical; details: in <5 min
Protocol: An in vitro DT diaphorase activated drug release assay was used to measure NADPH depletion. DT diaphorase activated release of Norfloxacin and Payload (PBD) was measured by the in vitro depletion of NADPH. The assay method was modified from the absorbance measurement of NADPH at A340 (Osman et. al, Chemico-Biological Interactions 147 (2004) 99-108) due to the interference of compounds. The depletion of NADPH was measured by monitoring the decrease of fluorescence intensity of NADPH at 480 nm after being excited at […]. […] Prior to assay, dilute the stock to 1 mM as the 5× working solution; (5) DT Diaphorase specific Inhibitor: prepare 40 mM stock of Dicumarol (Sigma, Cat #M1390-5G, MW=336.29) in 0.13 N NaOH, stored at 4° C. Dilute the stock to 250 uM as the 5× working solution; (6) Compounds: dilute the Norfloxacin and PBD conjugated compounds in assay buffer to 250 uM as the 5× working solution; and (7) 384 well black plate with clear bottom. For the assay procedure: (1) The reaction mix containing 0.5 uM DT-D, 50 uM compound, […] NADPH was set up in a 384 well plate at 50 ul/well. For the control with DT Diaphorase inhibitor, Dicumarol was added in the reaction mix at final 50 uM for each compound. Reaction mix containing NADPH and compound only was also added as the baseline controls. The DT Diaphorase was added in the last step; and (2) The reaction mixes were incubated at room temperature for 5, 30, 90 min. The fluorescence intensity (RFU) of DNAPH was recorded on M1000 plate reader (Tecan) with excitation at 340 nm and emission at 480 nm. For data analysis, data was analyzed and plotted using Prism GraphPad 6. The depletion of NADPH was calculated by the formula below at reaction time point at 90 min wherein: % NADPH depletion=[…].

Q: For `C=C1C[C@H]2C=Nc3cc(OCCCCCOc4cc5c(cc4OC)C(=O)N4CC(=C)C[C@H]4C(O)N5C(=O)OCc4cc5c(n4C)C(=O)C=C(OC)C5=O)c(OC)cc3C(=O)N2C1` (stereo partly shown) [PBD dimer diaphorase prodrug 1], which IC50 [1] is on record?
A: 14.2 nM

Q: What about the IC50 ([2]; HCT-116, Table 4, read-out: IC50 potency HCT-116) of the same compound?
A: 21.3 nM

Q: And the IC50 [3]?
A: 2.05 nM

Q: What about the release [4] of the same compound?
A: 12%

Q: What about the IC50 ([5]; KPL4, KPL-4 Cell line (high DTD), Table 10, read-out: IC50 Potency) of the same compound?
A: 35.5 nM

Q: And the IC50 ([6]; WSU Cell line (low DTD), Table 10, read-out: IC50 Potency)?
A: 8.56 nM

Q: With `C=C1C[C@H]2C=Nc3cc(OCCCCCOc4cc5c(cc4OC)C(=O)N4CC(=C)C[C@H]4C(O)N5C(=O)OCc4ccc(NC(=O)OCc5cc6c(n5C)C(=O)C=C(OC)C6=O)cc4)c(OC)cc3C(=O)N2C1` (stereo partly shown) [PBD dimer diaphorase prodrug 2] as the compound, how does the IC50 [1] read?
A: 9.84 nM

Q: And the IC50 [3]?
A: 1.25 nM

Q: What about the IC50 ([7]; KPL4, Table 4, read-out: IC50 potency KPL-4) of the same compound?
A: 10.1 nM

Q: And the IC50 ([8]; Homo sapiens, WSUDLCL2, Table 4, read-out: IC50 potency WSU-DLCL2)?
A: 0.8 nM

Q: How did the EC50 [9] turn out when `C=C1C[C@H]2C(O)N(C(=O)OCc3ccc(B4OC(C)(C)C(C)(C)O4)cc3)c3cc(OC)c(OC)cc3C(=O)N2C1` (stereo partly shown) [PBD monomer boronic acid prodrug 1] was run?
A: 1850 nM

Q: `C=C1C[C@H]2C(O)N(C(=O)OCc3cc4c(n3C)C(=O)C=C(OC)C4=O)c3cc(OC)c(OC)cc3C(=O)N2C1` (stereo partly shown) [PBD monomer diaphorase prodrug 2] was tested. Which IC50 ([2]; HCT-116, read-out: IC50 potency HCT-116) did it give?
A: 223 nM

Q: What about the IC50 ([7]; KPL4, read-out: IC50 potency KPL-4, Table 4) of the same compound?
A: 344 nM

Q: What about the IC50 ([7]; read-out: IC50 potency KPL-4, Table 4) of the same compound?
A: 355 nM

Q: And the IC50 ([8]; Homo sapiens, WSUDLCL2, read-out: IC50 potency WSU-DLCL2, Table 4)?
A: 575 nM

Q: What about the IC50 ([8]; read-out: IC50 potency WSU-DLCL2, Table 4) of the same compound?
A: 288 nM

Q: What about the IC50 ([5]; KPL4, read-out: IC50 Potency (nM)) of the same compound?
A: 344 nM

Q: What about the IC50 ([6]; read-out: IC50 Potency (nM)) of the same compound?
A: 575 nM

Q: And the “NADPH Dep.” value [10]?
A: >90% in
